These results are taken from patent US12076300B2, “Dosage regime with esketamine for treating major depressive disorder” (priority 2019, dated 2024).

The subject of series [1] is human peripheral blood lymphocytes (HPBL). The procedure: The clastogenic potential of esketamine was evaluated in the in vitro mammalian chromosome aberration test using human peripheral blood lymphocytes (HPBL) in both the absence and presence of an induced metabolic activation system (the 9000 g supernatant [S9] microsomal fraction of liver homogenate from rats exposed to Aroclor-1254).
The study was conducted in 2 phases, with a preliminary toxicity test used to determine the appropriate concentrations for the definitive chromosomal aberration assay. Water was used as a negative (vehicle) control. Toxicity (defined as ≥45% reduction in MI relative to the vehicle control) was evaluated at 9 concentrations, ranging from 0.0238 to 238 μg/ml, after exposure of HPBL to esketamine for 20 hours in the absence of S9 activation, or for 4 hours, either in the presence or absence of S9 activation, followed by a 16-hour recovery period.
The definitive chromosome aberration assay evaluated HPBL cells after exposure to esketamine for 20 hours in the absence of S9 activation, or for 4 hours, either in the presence of absence of S9 activation, followed by a 16-hour recovery. Positive controls for chromosomal aberrations in non-activated and S9-activated evaluations, respectively, consisted of mitomycin C (MMC, 0.6 and 0.3 μg/mL for the 4- and 20-hour exposures, respectively) and cyclophosphamide (CP, 2.5, 5, and 7.5 μg/mL). […] Initially, the doses selected for evaluation of chromosomal aberrations were 60, 120, and 238 μg/mL for the non-activated 4- and 20-hour treatment conditions; and 30, 60, and 200 μg/mL for the S9-activated 4-hour treatment condition.

The nature of series [2]: Repeated dose 28 day toxicokinetics. Particulars: males vs females. As to the method:
The objective of the study was to assess the potential toxicity, neurobehavioral effects, and toxicokinetics (TK) of esketamine when administered orally, via gavage, to Sprague Dawley rats for 28 days and to evaluate recovery during a 14-day drug-free period. Fifty male and 50 female rats were randomized into 4 groups (15/sex/Groups 1 and 4; 10/sex/Groups 2 and 3). Esketamine was administered via oral gavage once daily for 28 consecutive days to males at 0 (vehicle control), 6, 10 or 30 mg/kg/day and females at 0 (vehicle control), 2, 10 or 20 mg/kg/day in a dose volume of 10 mL/kg. Animals were observed until euthanized and necropsied on Day 29 (10/sex/group) or 43 (5/sex from Groups 1 and 4). Toxicity was evaluated based on mortality, clinical observations, body weights, food consumption, ophthalmology, motor activity, functional observational battery, clinical pathology (clinical chemistry, hematology, coagulation and urinalysis), organ weights, anatomic (macroscopic or microscopic) pathology. Toxicokinetic animals (3/sex/Group 1; 6/sex/Groups 2, 3, and 4) were similarly dosed and bled on Day 1 and during Week 4 for toxicokinetic analysis.

In series [3] the test system is male Sprague Dawley rats. Description: 7-day forced swim test. In kind it is in vivo. The procedure:
Groups of, 6-7 week old, male Sprague Dawley rats were administered esketamine by intraperitoneal injection and their behavioral despair assessed by a forced swim test. The animals, in cohorts of 10, were administered either a single dose of 15 mg/kg esketamine, 7 daily doses of either 7.5 or 15 mg/kg esketamine or a vehicle control, and the test performed 30 minutes after dosing. Statistical evaluation was performed using an ordinary One-Way ANOVA, t Test and an Uncorrected Fisher's LSD comparisons test.

The test system of series [4] is healthy male and female subjects. Description: Single dose crossover study in healthy volunteers: treatment-emergent adverse events. In kind it is in vivo, human. Particulars: all treatments, 16 subjects. The text has this:
A total of 128 TEAEs (treatment-emergent adverse event) were reported by 15 of 16 (94%) subjects of which 79 TEAEs reported by 14 of 16 (88%) subjects were to be related to the study drug. Overall, a total of 14 of 128 TEAEs reported by 4 (25%) subjects were of moderate severity and 114 of 128 TEAEs reported by 15 (94%) subjects were of mild severity. […] The most frequently occurring adverse events (reported more than twice) were headache, dizziness, hypokinesia, feeling abnormal, fatigue, euphoric mood inappropriate affect, nausea and hyperhidrosis. Table 4 presents the frequency of the most frequently reported related TEAEs as a percentage of the subjects that experienced an adverse effect per treatment.

Series [5] is described as follows: Pharmacokinetics of 40 mg oral esketamine in MDD participants treated with an antidepressant. In kind it is in vivo, human. As to conditions: 40 mg oral esketamine hydrochloride once daily for 7 days, 15 MDD subjects. The procedure:
An 18 subject in patient study to assess the safety, tolerability, and pharmacokinetics of 40 mg oral esketamine in MDD participants currently treated with an antidepressant drug was held. In an, up to, 35 day screening phase, the subjects were assessed for study eligibility and, if needed, washed out from disallowed drugs. During this period, it was also determined whether the subject's current dose of oral antidepressant medication had been stable for at least 4 weeks.

The conditions of series [6]: Domino (2010); cited from earlier work.
The nature of series [7]: Single dose, randomized, open-label, crossover study in healthy volunteers: pharmacokinetics. As to conditions: plasma analyte after single dose esketamine hydrochloride 20 mg oral solution; 15 subjects. The source says:
A randomized, open-label 4-way crossover study in 16 healthy male and female subjects was held wherein said subjects were placed in a randomly assigned order and administered esketamine. Each subject was assigned to 1 of 4 treatment sequences according to a randomization code such that 4 subjects were assigned to each treatment sequence. There was a wash-out period of at least 7 days between dosing periods with doses consisting of either oral or intravenous esketamine hydrochloride. The study consisted of an eligibility screening period of 28 days, 4 study periods involving administration of a single dose of esketamine hydrochloride followed by safety assessments with blood sampling for PK purposes up to 72 hours after study drug administration, discharge at 72 hours after study drug administration and a follow-up visit 7-14 days after the last PK blood sample was taken on Day 4.

The subject of series [8] is human peripheral blood lymphocytes (HPBL). This is another data set of the same source.
Description: The clastogenic potential of (S)-norketamine was evaluated in the in vitro mammalian chromosome aberration test using human peripheral blood lymphocytes (HPBL) in both the absence and presence of an induced metabolic activation system (the 9000 g supernatant [S9] microsomal fraction of liver homogenate from rats exposed to phenobarbital/5,6-benzoflavone).
The study was conducted in 2 phases, with a preliminary toxicity test used to determine the appropriate concentrations for the definitive chromosomal aberration assay. Water was used as a negative (vehicle) control. In both phases, the cells were treated for 3 and 21 hours in the absence of S9 mix and for 3 hours in the presence of S9 mix. The mitotic index was assessed for all cultures to determine cytotoxicity. Ten concentrations, ranging from 2.62 to 260.16 μg/mL, were evaluated in the preliminary toxicity test.

SMILES strings stand for the structures.

Turning to `CN[C@]1(c2ccccc2Cl)CCCCC1=O` [esketamine, (2S)-2-(2-Chlorophenyl)-2-(methylamino) cyclohexanone], in series [1], the “Cochran-Armitage test for dose response of structural aberrations” value is on record as “positive for a dose response”; the “induction of numerical chromosomal aberrations” value is reported as “negative”; the “induction of structural and numerical chromosomal aberrations” value is listed as “negative”; the “toxicity (≥45% reduction in MI relative to the vehicle control), preliminary toxicity test” value is “not observed at any dose”. The “cytotoxicity (≥45% reduction in mitotic index relative to the vehicle control), definitive assay” value in series [1] (non-activated 4- and 20-hour treatment, 30 to 238 μg/ml) was “not observed at any esketamine dose”. For the same compound, the “exposure by sex after normalization for dose level differences” value in series [2] is recorded as “males had lower exposures than females”. The “antidepressant-like effect, continuous 7-day treatment vs single acute dose” value in series [3] (same dose levels) is “stronger antidepressant-like effect than a single acute dose”. For the same compound, the “effect on immobility time, acute treated rats” value in series [3] (single dose of 15 mg/kg intraperitoneal, test 30 minutes after dosing) is reported as 42 % of control. In series [4], the “total number of TEAEs reported” value was found to be 128. Besides, in series [5], the “mean esketamine Cmax” value was determined as 11.82 ng/mL. For the same compound, the AUC(0-t) in series [5] (human, in vivo, read-out: mean esketamine AUC0-t) was 35.6 ng·h/mL. Further, the “psychotomimetic side effects compared with (R)-ketamine” value in series [6] is “greater undesirable psychotomimetic side effects”.

On to `N[C@]1(c2ccccc2Cl)CCC[C@H](O)C1=O` [(2S,6S)-OH-Norketamine, (2S,6S)-2-Amino-2-(2-chlorophenyl)-6-hydroxycyclohexanone], for which the “t1/2, geometric mean” value in series [7] turned out to be 7.83 h.

On to `N[C@]1(c2ccccc2Cl)CCCCC1=O` [(S)-norketamine, (2S)-2-(2-Chlorophenyl)-2-(amino) cyclohexanone], for which the “clastogenicity (structural and numerical chromosomal aberrations)” value in series [8] is reported as “non-clastogenic”.
